Reference: ChEMBL document CHEMBL1201862, “PubChem BioAssay data set” (2004)
Activity calls are given as the source filed them.

Experiments:
[1] = molecular target: G-protein coupled receptor 35 (Homo sapiens, UniProt Q9HC97); test: GPR35 antagonists blocking zaprinast-driven arrestin recruitment, primary screen, imaging, U2OS, beta-arrestin-GFP, zaprinast agonist (AID 2058); format: functional;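 note: antagonist potency meaning inhibition of agonist-induced arrestin redistribution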
BJ = test: cytotoxicity toward Ras-transformed BJeLR fibroblasts, dose response, cell-based, alamar blue fluorescence, cherrypicked samples (AID 2631); format: functional; conditions: Homo sapiens;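 note: confirmatory dose-response assay in RAS-dependent BJ fibroblasts engineered with TERT, LT and ST, with cytotoxicity read by fluorescence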
cells = format: functional, cell-based
[2] = molecular target: T1, Histone-lysine N-methyltransferase NSD2 (Homo sapiens, UniProt O96028); format: biochemical
T1 sequence (O96028 whole entry): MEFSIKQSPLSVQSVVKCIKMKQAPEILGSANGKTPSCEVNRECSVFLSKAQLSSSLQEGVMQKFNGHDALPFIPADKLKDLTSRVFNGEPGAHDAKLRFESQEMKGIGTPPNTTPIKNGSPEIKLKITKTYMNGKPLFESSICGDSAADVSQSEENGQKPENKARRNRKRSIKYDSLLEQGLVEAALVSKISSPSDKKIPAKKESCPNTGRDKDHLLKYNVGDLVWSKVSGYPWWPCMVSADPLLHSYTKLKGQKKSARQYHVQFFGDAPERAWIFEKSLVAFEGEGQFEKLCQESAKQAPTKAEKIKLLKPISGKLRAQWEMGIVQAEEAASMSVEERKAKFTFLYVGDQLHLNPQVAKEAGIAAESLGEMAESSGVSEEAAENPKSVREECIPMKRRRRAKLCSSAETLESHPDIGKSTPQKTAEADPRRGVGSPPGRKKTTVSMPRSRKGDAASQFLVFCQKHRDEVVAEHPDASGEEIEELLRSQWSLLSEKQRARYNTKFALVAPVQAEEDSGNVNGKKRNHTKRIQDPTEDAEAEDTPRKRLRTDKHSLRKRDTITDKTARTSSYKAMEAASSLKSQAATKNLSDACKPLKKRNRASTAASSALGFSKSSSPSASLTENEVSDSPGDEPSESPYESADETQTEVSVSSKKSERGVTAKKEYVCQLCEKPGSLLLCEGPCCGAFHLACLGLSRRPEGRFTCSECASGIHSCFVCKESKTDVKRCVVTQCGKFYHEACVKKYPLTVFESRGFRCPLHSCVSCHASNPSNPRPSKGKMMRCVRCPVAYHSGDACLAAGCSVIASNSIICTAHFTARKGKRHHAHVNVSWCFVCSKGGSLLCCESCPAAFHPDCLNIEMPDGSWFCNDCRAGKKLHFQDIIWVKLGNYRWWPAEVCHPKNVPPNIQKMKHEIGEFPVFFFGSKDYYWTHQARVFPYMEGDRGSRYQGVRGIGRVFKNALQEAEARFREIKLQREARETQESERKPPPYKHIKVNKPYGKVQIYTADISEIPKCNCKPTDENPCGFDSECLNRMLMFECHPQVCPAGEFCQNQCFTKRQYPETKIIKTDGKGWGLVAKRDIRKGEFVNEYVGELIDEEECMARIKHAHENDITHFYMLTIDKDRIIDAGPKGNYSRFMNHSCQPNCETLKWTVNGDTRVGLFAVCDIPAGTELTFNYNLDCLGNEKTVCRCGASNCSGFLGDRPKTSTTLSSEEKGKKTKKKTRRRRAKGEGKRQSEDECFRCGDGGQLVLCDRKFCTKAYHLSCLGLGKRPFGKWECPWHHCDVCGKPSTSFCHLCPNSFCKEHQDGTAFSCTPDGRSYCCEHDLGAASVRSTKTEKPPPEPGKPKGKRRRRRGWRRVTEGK

[3] = cytotoxicity in MIN6 insulinoma cells, dose response, cytotoxicity control, cell-based, mouse insulinoma (AID 2122); format: functional;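 note: confirmatory high-throughput counterscreen run to flag cytotoxic compounds; mouse MIN-6 beta cells carrying an insulin promoter eGFP reporter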
[4] = molecular target: Intestinal-type alkaline phosphatase (Homo sapiens, UniProt P09923); test: activation of human intestinal alkaline phosphatase – biochemical, dose response (AID 488873); format: functional
Chain of Intestinal-type alkaline phosphatase (Homo sapiens, UniProt P09923) (P09923 whole entry): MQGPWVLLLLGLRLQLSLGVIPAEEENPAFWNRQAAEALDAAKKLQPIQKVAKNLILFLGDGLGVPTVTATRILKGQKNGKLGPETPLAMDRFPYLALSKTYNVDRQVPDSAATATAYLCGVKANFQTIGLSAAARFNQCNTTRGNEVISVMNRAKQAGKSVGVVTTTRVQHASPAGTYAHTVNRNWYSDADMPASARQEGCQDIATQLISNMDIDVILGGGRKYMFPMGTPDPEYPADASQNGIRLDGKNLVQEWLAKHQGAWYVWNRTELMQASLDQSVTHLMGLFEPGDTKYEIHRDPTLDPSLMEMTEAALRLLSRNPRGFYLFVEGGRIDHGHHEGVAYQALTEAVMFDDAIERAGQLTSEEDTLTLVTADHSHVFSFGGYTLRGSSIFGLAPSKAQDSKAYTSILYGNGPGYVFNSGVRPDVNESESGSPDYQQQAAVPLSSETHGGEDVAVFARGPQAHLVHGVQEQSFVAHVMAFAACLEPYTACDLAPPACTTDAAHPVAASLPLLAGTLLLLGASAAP

[5] = molecular target: Intestinal-type alkaline phosphatase (Mus musculus, UniProt P24822); test: mouse intestinal alkaline phosphatase activators, dose response, biochemical, luminescence, uHTS hits (AID 488783); format: functional
Chain of Intestinal-type alkaline phosphatase (Mus musculus, UniProt P24822) (P24822 whole entry): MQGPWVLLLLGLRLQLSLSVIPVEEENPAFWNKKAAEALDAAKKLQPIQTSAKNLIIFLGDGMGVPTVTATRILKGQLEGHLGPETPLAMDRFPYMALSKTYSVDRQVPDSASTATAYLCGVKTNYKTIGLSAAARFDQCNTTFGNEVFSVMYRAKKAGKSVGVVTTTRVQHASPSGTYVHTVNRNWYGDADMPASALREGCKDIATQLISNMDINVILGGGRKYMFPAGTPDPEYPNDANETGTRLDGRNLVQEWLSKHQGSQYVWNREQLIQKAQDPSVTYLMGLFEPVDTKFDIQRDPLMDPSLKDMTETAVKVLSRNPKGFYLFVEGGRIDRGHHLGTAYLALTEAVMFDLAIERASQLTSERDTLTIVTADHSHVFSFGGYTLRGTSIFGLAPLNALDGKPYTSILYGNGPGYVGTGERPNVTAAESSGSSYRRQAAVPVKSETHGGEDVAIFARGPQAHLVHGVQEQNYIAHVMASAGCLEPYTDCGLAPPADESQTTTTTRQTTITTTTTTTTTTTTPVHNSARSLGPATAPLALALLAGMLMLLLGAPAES

Chain of G-protein coupled receptor 35 (Q9HC97 whole entry): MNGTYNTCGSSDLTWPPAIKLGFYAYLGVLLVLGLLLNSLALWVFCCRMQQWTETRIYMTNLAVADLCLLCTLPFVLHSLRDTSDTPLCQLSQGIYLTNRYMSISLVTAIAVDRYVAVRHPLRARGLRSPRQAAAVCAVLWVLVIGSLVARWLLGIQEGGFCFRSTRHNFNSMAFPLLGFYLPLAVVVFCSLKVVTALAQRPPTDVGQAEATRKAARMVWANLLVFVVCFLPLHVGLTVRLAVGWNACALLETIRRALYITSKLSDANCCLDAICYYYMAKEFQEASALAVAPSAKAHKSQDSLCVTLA

CCc1nnc(NS(=O)(=O)c2ccc(NC(=S)NC(=O)/C=C/c3ccc(C(C)C)cc3)cc2)s1
IC50 [1]: 1.59 µM (active)

O=C(/C=C/c1ccco1)Nc1ccc(Oc2ccccc2)cc1
EC50 (BJ): 14.6 µM (active)
EC50 (cells): > 350 µM (not active)

COc1ccc(S(=O)(=O)Nc2cc(SCC(=O)O)c(O)c3ccccc23)cc1
AC50 [2]: 3.56 µM (active)

O=C1C(Nc2ccc(O)cc2)=C/C(=N/S(=O)(=O)c2cccs2)c2ccccc21
IC50 [3]: 0.702 µM (active)

CC1CC(=O)c2c(cc3c(-c4c(O)cc(O)c5c(O)c6c(cc45)OC(C)CC6=O)c(O)cc(O)c3c2O)O1 (configuration not stated) [CEPHALOCHROMIN]
EC50 [4]: 21.7 µM (active)
EC50 [5]: 19.1 µM (active)
